In patent publication US20240327790A1, “METHODS AND COMPOSITIONS RELATING TO 3-D CULTURES” (PRESIDENT AND FELLOWS OF HARVARD COLLEGE, priority 2021, published 2024):

Key:
[1] = tested on: human skin models, primary human neonatal keratinocytes; experiment: Irritation test (MTT viability) on skin models with neonatal keratinocytes; format: cell-based; details: 3 mg/mL SDS in PBS, 50 μL on top of 14-day neonatal samples, 18 hours at 37° C., MTT 3 hours, absorbance 490 nm
Method: (§1) One potential use-case for these skin models is as an irritation model for pharmaceuticals, cosmetics, or occupational health studies. To evaluate the use of these stamped models in irritation tests, a common test method^21 was adapted. Sodium dodecyl sulfate (SDS) was applied to the top of these samples after 14 days of culture and incubated at 37° C. for 18 hours. After, an MTT assay was used to measure the cell viability. […] If the SDS penetrates through the epidermal barrier, the sample will not be viable and give a low signal in the MTT assay. […] Moreover, the standard for this test method is that the normalized viability reaches 50% between 1-3 mg/mL of SDS added to the samples^21. The samples here met this standard, as the 3 mg/mL neonatal samples have absorbance values greater than 50% of the negative control, and the diabetic sample with 2 mg/mL SDS has absorbance value greater than 50% of the negative control.
(§2) Irritation Test. After keratinocytes had grown for 14 days, 50 μL of SDS at a concentration between 1-3 mg/mL in PBS was applied to the top of each skin sample. 1×PBS was applied as a negative control. […] After the substrate was completely dissolved, 50 μL of isopropanol formazan solution was transferred from each well to a 48 well plate, which was measured on a plate reader using the absorbance setting at 490 nm.

[2] = tested on: human skin model, primary human adult diabetic keratinocytes; experiment: Irritation test (MTT viability) on skin model with adult diabetic donor keratinocytes; format: cell-based; details: 2 mg/mL SDS in PBS, 50 μL on top of 14-day diabetic sample, 18 hours at 37° C., MTT 3 hours, absorbance 490 nm
Method: as §1, §2

CCCCCCCCCCCCOS(=O)(=O)[O-].[Na+] [SDS, Sodium dodecyl sulfate]
absorbance value (MTT viability) relative to negative control [1]: greater than 50 % of the negative control | absorbance value (MTT viability) relative to negative control [2]: greater than 50 % of the negative control
